From ChEMBL document CHEMBL1124619, “Phencyclidine-like effects of tetrahydroisoquinolines and related compounds” (J Med Chem, 1989)

Tests used:
[1] = molecular target: T1, Glutamate receptor ionotropic, NMDA 2C (Rattus norvegicus, UniProt Q00961); test: Inhibition of [3H]1-[1-(2-thienyl) piperidine ([3H]TCP) binding to PCP receptor
[2] = molecular target: T2, Sigma non-opioid intracellular receptor 1 (Rattus norvegicus, UniProt Q9R0C9); test: Inhibition of [3H]- N-allylnormetazocine ([3H]NANM) binding to sigma receptor
[3] = molecular target: T2, Sigma non-opioid intracellular receptor 1; test: Inhibition of [3H]- N-allylnormetazocine ([3H]-NANM) binding to sigma receptors; NI = No detectable inhibition of binding at 30 uM
[4] = molecular target: T1, Glutamate receptor ionotropic, NMDA 2C; test: Inhibition of [3H]1-[1-(2-thienyl) piperidine ([3H]TCP) binding to phencyclidine receptor; NI = No detectable inhibition of binding at 30 uM
Rattus norvegicus [5] = species: Rattus norvegicus; test: (§1) Compound was tested for induction of phencyclidine (PCP) like ataxia behavior; type: functional
Rattus norvegicus [6] = species: Rattus norvegicus; test: (§2) Compound was tested for induction of phencyclidine (PCP) like stereotyped behavior; type: functional
[7] = molecular target: Glutamate receptor ionotropic, NMDA 2C (Rattus norvegicus) (UniProt Q00961); test: as §1; type: functional
[8] = molecular target: Glutamate receptor ionotropic, NMDA 2C (Rattus norvegicus) (UniProt Q00961); test: as §2; type: functional
[9] = molecular target: T1, Glutamate receptor ionotropic, NMDA 2C; test: Inhibition of [3H]1-[1-(2-thienyl) piperidine ([3H]TCP) binding to PCP receptor; NI = No detectable inhibition of binding at 30 uM

T1 sequence (Q00961 whole entry): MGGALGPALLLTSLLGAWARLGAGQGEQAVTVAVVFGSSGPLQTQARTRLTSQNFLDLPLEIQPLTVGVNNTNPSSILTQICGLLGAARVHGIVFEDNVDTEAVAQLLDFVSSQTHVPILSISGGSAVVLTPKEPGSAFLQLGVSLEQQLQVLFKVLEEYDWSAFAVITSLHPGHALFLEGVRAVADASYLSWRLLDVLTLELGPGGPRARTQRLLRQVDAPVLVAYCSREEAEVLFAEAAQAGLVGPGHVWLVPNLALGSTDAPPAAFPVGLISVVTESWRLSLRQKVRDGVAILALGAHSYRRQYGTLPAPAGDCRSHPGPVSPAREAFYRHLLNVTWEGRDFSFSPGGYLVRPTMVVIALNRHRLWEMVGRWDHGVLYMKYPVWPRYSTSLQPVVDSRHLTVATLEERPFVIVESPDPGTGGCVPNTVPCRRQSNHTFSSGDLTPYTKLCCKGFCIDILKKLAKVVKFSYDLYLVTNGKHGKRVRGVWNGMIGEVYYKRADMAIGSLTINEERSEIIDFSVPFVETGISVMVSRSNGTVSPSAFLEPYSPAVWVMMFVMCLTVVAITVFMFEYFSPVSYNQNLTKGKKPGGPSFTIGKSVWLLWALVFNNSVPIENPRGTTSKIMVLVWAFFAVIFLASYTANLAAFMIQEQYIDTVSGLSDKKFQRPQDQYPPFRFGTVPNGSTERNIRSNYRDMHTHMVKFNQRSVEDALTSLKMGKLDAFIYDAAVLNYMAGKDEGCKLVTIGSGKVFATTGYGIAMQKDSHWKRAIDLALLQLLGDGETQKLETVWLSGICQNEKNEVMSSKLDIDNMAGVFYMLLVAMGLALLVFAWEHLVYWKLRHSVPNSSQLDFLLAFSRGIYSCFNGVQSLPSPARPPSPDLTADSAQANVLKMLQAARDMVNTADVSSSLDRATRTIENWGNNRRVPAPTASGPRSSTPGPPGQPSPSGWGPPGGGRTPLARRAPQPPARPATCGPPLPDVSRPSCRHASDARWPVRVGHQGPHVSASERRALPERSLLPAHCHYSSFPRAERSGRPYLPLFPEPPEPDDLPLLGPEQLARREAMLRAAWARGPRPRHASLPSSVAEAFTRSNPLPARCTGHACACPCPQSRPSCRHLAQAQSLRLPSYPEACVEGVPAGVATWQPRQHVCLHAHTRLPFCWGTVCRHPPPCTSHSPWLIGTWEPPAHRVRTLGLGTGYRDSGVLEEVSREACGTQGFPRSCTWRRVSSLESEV
T2 sequence (Q9R0C9 whole entry): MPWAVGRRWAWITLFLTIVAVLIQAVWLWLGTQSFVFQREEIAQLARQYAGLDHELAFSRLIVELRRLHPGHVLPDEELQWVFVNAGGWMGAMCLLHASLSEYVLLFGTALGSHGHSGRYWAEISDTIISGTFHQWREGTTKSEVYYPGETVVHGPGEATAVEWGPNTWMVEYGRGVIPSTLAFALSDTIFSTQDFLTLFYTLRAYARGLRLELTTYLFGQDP
Chain of Glutamate receptor ionotropic, NMDA 2C (Rattus norvegicus) (Q00961 20-1237 limits assumed): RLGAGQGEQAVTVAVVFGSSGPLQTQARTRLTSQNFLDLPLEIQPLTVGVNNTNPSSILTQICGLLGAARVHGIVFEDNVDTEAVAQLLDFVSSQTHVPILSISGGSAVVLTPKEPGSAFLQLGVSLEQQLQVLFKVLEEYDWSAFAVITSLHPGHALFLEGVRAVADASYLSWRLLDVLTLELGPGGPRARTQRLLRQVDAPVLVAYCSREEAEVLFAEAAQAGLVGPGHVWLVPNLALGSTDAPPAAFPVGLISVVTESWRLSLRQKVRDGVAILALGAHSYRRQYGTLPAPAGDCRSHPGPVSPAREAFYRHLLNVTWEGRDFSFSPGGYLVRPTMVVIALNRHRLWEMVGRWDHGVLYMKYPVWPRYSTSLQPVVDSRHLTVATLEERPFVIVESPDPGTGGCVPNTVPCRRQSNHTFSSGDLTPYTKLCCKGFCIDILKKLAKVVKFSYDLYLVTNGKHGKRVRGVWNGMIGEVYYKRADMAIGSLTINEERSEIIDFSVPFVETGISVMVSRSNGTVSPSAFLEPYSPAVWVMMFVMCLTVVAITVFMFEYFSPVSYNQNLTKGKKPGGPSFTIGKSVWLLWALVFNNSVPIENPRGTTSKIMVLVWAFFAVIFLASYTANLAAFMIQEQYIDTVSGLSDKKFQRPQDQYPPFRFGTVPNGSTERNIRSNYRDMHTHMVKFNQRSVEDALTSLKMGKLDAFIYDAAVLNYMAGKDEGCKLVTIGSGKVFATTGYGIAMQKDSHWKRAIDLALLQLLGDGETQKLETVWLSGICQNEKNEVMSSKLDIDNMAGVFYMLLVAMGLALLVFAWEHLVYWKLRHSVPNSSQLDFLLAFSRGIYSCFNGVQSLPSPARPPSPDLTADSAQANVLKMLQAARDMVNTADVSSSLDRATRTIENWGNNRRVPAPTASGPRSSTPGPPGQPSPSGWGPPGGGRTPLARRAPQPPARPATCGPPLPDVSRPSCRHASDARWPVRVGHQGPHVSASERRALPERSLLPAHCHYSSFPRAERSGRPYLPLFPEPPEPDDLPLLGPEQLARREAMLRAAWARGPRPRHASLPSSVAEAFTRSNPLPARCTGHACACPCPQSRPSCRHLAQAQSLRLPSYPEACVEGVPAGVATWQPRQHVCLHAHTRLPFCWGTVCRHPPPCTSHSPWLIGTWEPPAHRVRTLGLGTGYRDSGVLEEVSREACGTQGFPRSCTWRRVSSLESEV

SMILES	IC50 [2] [µM]	further results
CC1NCCc2ccsc21 (stereo unspecified)	11	IC50 [1]: > 30 µM
CN1CCc2ccccc2C1c1ccccc1 (stereo unspecified)	2.9	
C=CCN1C(C)Cc2ccccc2C1C (stereo unspecified)	1.6	
c1ccc(C2NCc3ccccc32)cc1 (stereo unspecified)	> 30	
c1ccc2c(c1)CCNC21CCCCC1		IC50 [3]: Not Active; IC50 [4]: Not Active
CC1Cc2ccccc2C(C)N1 (stereo unspecified)	15	
COc1ccccc1-c1cccc2c1CNCC2	1.8	IC50 [1]: 0.9 µM; ED50 (Rattus norvegicus [5]): 22 mg/kg; ED50 (Rattus norvegicus [6]): 20 mg/kg
C=CCN1CCc2ccccc2C1c1ccccc1 (stereo unspecified)	1.3	
c1ccc2c(c1)CCNC2c1ccc2ccccc2c1 (stereo unspecified)	10	
c1csc(C2(N3CCCCC3)CCCCC2)c1 [TENOCYCLIDINE]	0.24	
CC(C)C1NCCc2ccccc21 (stereo unspecified)	2.5	
c1ccc(C2NCCc3ccsc32)cc1 (stereo unspecified)	6.3	IC50 [1]: 8.8 µM; ED50 (Rattus norvegicus [5]): > 50 mg/kg; ED50 (Rattus norvegicus [6]): > 50 mg/kg
CCOCCN1CCc2ccccc2C1c1ccccc1 (stereo unspecified)	5.4	IC50 [1]: 8.2 µM
CC1Cc2ccccc2CN1Cc1ccccc1 (stereo unspecified)	3.2	
Fc1ccc(C2NCCc3ccccc32)cc1 (stereo unspecified)	1.8	ED50 [7]: 49 mg/kg; ED50 [8]: 38 mg/kg
C=CCN1CCc2ccsc2C1C(C)C (stereo unspecified)	5	IC50 [1]: 8.5 µM
CC(C)CC1NCCc2ccccc21 (stereo unspecified)	5	
c1ccc(C2Cc3ccccc3CN2)cc1 (stereo unspecified)	2.6	ED50 [7]: 18 mg/kg; ED50 [8]: 19 mg/kg
C=CCN1CCc2ccccc2C1c1ccc2ccccc2c1 (stereo unspecified)	11	IC50 [4]: Not Active
CC1Cc2ccccc2CN1C (stereo unspecified)	2.6	

SMILES	IC50 [2] [µM]	further results
c1ccc(CN2CCc3ccccc3C2)cc1	7.8	IC50 [4]: Not Active
Clc1ccc(C2NCCc3ccccc32)cc1 (stereo unspecified)	3.4	
C=CCN1CCc2ccsc2C1c1ccccc1 (stereo unspecified)	20	IC50 [9]: Not Active
c1ccc2c(c1)CCNC2C1CCCCC1 (stereo unspecified)	11	
CCN1CCc2ccsc2C1C(C)C (stereo unspecified)		IC50 [1]: 12 µM; IC50 [3]: Not Active
c1csc(C2NCCc3ccccc32)c1 (stereo unspecified)	3.8	IC50 [1]: 7.6 µM; ED50 (Rattus norvegicus [6]): 54 mg/kg
c1ccc(C2CNCc3ccccc32)cc1 (stereo unspecified)	4.2	
CN1CCc2ccccc2C1	2.7	
c1ccc(C2(N3CCCCC3)CCCCC2)cc1 [PHENCYCLIDINE]	0.53	ED50 [7]: 6.5 mg/kg; ED50 [8]: 4.7 mg/kg
Cc1ccc(C2NCCc3ccccc32)cc1 (stereo unspecified)	5.6	
C=CCN1CCc2ccccc2C1C1CCCCC1 (stereo unspecified)	3.1	
CCN1CCc2ccccc2C1c1ccccc1 (stereo unspecified)	1.3	
COc1ccc(C2NCCc3ccccc32)cc1 (stereo unspecified)	2.2	IC50 [1]: 2.5 µM
c1ccc(C2NCCc3ccccc32)cc1 (stereo unspecified)		ED50 [7]: > 20 mg/kg; ED50 [8]: 25 mg/kg
CC(C)C1c2sccc2CCN1C (stereo unspecified)	7.8	IC50 [1]: 17 µM
c1ccc(CC2NCCc3ccccc32)cc1 (stereo unspecified)	0.43	ED50 [7]: 42 mg/kg; ED50 [8]: 26 mg/kg
CC(C)C1NCCc2ccsc21 (stereo unspecified)	3.8	IC50 [1]: 17 µM
c1ccc(-c2cccc3c2CNCC3)cc1	2.7	ED50 [7]: 44 mg/kg; ED50 [8]: 28 mg/kg
C=CCN1CC[C@]2(C)c3ccccc3CC1[C@@H]2C	0.05	
c1ccc(C2NCCCc3ccccc32)cc1 (stereo unspecified)		IC50 [3]: Not Active; IC50 [4]: Not Active
